Measured values published in patent publication US10407666B2, “Recombinant vectors” (priority 2008, dated 2019).
Entries after “also recorded” stand apart in the source; their conditions may differ.

Tests used:
[1] = test system: Mouse CT26 tumor explants; experiment: 5-FC cell killing assay (MTS) on CT26 tumor explants; format: cell-based; conditions: explant animal 31: CT26, AC3-yCD2(V) E5 + 5-FC, 3.5 5-FC dosings
[2] = test system: recurrent anaplastic oligodendroglioma; experiment: Patient dog with spontaneous recurrent anaplastic oligodendroglioma, vector by CED plus 5-FC; conditions: second cycle 160 mg/kg/day by mouth, stopped after fifth day
[3] = test system: U-87 cells; experiment: yCD protein level in infected U-87 cells (FIG. 4); format: cell-based, human

| Molecule | 5-FC sensitivity IC50 (mM) [1] | adverse event [2] | CD protein level compared to wild type yCD protein [3] |
| --- | --- | --- | --- |
| Nc1nc(=O)[nH]cc1F [Vector 5-FC, 5-fluorocytosine] | poorly responsive; also recorded: Not sensitive | development of rash | – |
| yCD2 protein: yeast cytosine deaminase with A23L/V108I/I140L substitutions, human codon optimized gene (SEQ ID NO:4) (protein, UniProt Q12178 1-158, looked up, variant A23L V108I I140L) Cytosine deaminase: MVTGGMASKWDQKGMDIAYEEALLGYKEGGVPIGGCLINNKDGSVLGRGHNMRFQKGSATLHGEISTLENCGRLEGKVYKDTTLYTTLSPCDMCTGAIIMYGIPRCVIGENVNFKSKGEKYLQTRGHEVVVVDDERCKKLMKQFIDERPQDWFEDIGE | – | – | higher levels |
